{"source": "patent US4224329A", "about": "“2-Substitute d-trans-5-aryl-2,3,4,4a,5,9b-hexahydro-1H-pyrido[4,3-b]indoles” (Pfizer Inc., priority 1979, dated 1980)", "key": {"Amphetamine Stereotypy": {"system": "Amphetamine Stereotypy", "assay": "Antagonism of Amphetamine Stereotypy in Rats (ED50 for blocking characteristic amphetamine cage movement)", "format": "in vivo", "settings": "s.c., hydrochloride; for ED50, 1 Hr.: 60 min; for ED50, 24 Hrs.: 1440 min", "description": "The effects of the compounds of the present invention on prominent amphetamine-induced symptoms were studied in rats by a rating scale modeled after the one reported by Quinton and Halliwell, and Weissman. Groups of five rats were placed in a covered plastic cage measuring approximately 26 cm.×42 cm.×16 cm. […] They were then treated 1, 5 and 24 hrs. later with d-amphetamine sulfate, 5 mg./kg. intraperitoneally (i.p.). […] On the basis of dose-response data after amphetamine it was possible to determine the effective dose of the compound necessary to antagonize or block the characteristic amphetamine behavior of cage movement for fifty percent of the rats tested (ED50). The time of rating chosen coincides with the peak action of amphetamine which is 60-80 min. after treatment with this agent.\nEmploying the above-described procedure, the following 4a,9b-trans compounds were tested for their ability to block the behavior effects of amphetamine, the results being reported as the ED50 in mg./kg. at the indicated times: [drawing 30]\nA. The following results were obtained on the mixture of diastereomers for those compounds wherein R contains a secondary alcohol group and on the single diastereomer of the other 4a, 9b-trans hexahydro-pyrido-indoles.\nB. The results of tests in which compounds of the invention reported in Part A, above are compared with the corresponding δ-substituted-5-aryl-1,2,3,4-tetrahydropyrido[4,3-b]indoles of U.S. Pat. No. 4,001,263 are summarized below. For each pair the results obtained on the prior art compound (a) are given first and the results for the compound of the invention (b) are given second. Where indicated the test compound was also administered orally (p.o.) and tests were carried out for 48 hours.\nC. […] In each case the compounds are of the formula\nThe tests were carried out for 72 hours."}, "dopamine receptors": {"target": "dopamine receptors (Rattus norvegicus, UniProt P61169)", "sequence (P61169 whole entry)": "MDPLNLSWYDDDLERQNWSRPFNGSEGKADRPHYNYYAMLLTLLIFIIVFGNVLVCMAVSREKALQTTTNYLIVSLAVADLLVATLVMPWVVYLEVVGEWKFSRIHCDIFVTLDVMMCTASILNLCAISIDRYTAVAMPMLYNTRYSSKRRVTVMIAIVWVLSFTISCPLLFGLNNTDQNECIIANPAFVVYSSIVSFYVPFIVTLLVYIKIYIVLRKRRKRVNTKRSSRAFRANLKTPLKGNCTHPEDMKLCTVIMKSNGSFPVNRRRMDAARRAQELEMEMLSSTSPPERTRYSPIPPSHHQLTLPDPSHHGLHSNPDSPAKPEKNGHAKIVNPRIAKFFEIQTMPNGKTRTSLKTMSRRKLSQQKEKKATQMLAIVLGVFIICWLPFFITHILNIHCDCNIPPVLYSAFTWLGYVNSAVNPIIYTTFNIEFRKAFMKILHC", "assay": "Inhibition of 3H-Spiroperidol Binding to Dopamine Receptors (rat corpus striatum)", "parameters": "species or system rats (Sprague-Dawley CD males)", "settings": "0.5 nM 3H-spiroperidol, 10 minutes at 37° C."}, "[1]": {"settings": "Part C, isomers of Examples 13 and 14"}, "[2]": {"settings": "Part D, enantiomers by synthesis of Example 21"}}, "note": "Counter-ions that a name gives are not always drawn."}
{"smiles": "OC(CCCN1CC[C@@H]2[C@@H](C1)c1cc(F)ccc1N2c1ccc(F)cc1)c1ccc(F)cc1", "note": "(single isomer, unassigned) [δ, trans 8-fluoro-5-(p-fluorophenyl)-2-[4-hydroxy-4(p-fluorophenyl)butyl]-2,3,4,4a,5,9b-hexahydro-1H-pyrido[4,3-b]indole hydrochloride]", "values": [{"measurement": "ED50, 1 Hr.", "setting": "Amphetamine Stereotypy; [1]", "value": "> 1000", "unit": "micrograms/kilograms"}, {"measurement": "ED50, 1 Hr.", "setting": "Amphetamine Stereotypy; [2]", "value": "> 10", "unit": "mg/kg"}, {"measurement": "ED50, 5 Hrs.", "setting": "Amphetamine Stereotypy; 5 hrs, Part D, enantiomers by synthesis of Example 21, 300 min", "value": 5.7, "unit": "mg/kg"}, {"measurement": "ED50, 24 Hrs.", "setting": "Amphetamine Stereotypy; [1]", "value": "320-1000 micrograms/kilograms"}, {"measurement": "ED50, 24 Hrs.", "setting": "Amphetamine Stereotypy; [2]", "value": "> 10", "unit": "mg/kg"}, {"measurement": "ED50, 48 Hrs.", "setting": "Amphetamine Stereotypy; 48 hrs, Part D, enantiomers by synthesis of Example 21, 2880 min", "value": "> 10", "unit": "mg/kg"}, {"measurement": "ED50, 72 Hrs.", "setting": "Amphetamine Stereotypy; 72 hrs, Part D, enantiomers by synthesis of Example 21, 4320 min", "value": "> 10", "unit": "mg/kg"}, {"measurement": "IC50", "setting": "dopamine receptors", "value": 0.35, "unit": "µM"}]}
